In PubChem BioAssay (NCI):
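How tested: cells in 96-well plates exposed to compound for 48 hours at five concentrations. Here, GI50 denotes the concentration required for 50% inhibition of growth. At the TGI there is no net growth.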

Assays:
Experiment in all cases: inhibition of tumour cell growth, NCI panel, 48 h
SK-OV-3 ovarian = test system: SK-OV-3 ovarian
M19-MEL melanoma = test system: M19-MEL melanoma
CAKI-1 renal = test system: CAKI-1 renal
DLD-1 colon = test system: DLD-1 colon
HCC-2998 colon = test system: HCC-2998 colon
SK-MEL-5 melanoma = test system: SK-MEL-5 melanoma
UACC-257 melanoma = test system: UACC-257 melanoma
M14 melanoma = test system: M14 melanoma
NCI/ADR-RES ovarian = test system: NCI/ADR-RES ovarian
K-562 leukemia = test system: K-562 leukemia

Row | Compound | GI50 (SK-OV-3 ovarian) | TGI (SK-OV-3 ovarian) | GI50 (M19-MEL melanoma) | TGI (M19-MEL melanoma) | GI50 (CAKI-1 renal) | TGI (CAKI-1 renal) | GI50 (DLD-1 colon) | TGI (DLD-1 colon) | GI50 (HCC-2998 colon) | TGI (HCC-2998 colon) | GI50 (SK-MEL-5 melanoma) | TGI (SK-MEL-5 melanoma) | GI50 (UACC-257 melanoma) | TGI (UACC-257 melanoma) | GI50 (M14 melanoma) | TGI (M14 melanoma) | GI50 (NCI/ADR-RES ovarian) | TGI (NCI/ADR-RES ovarian) | GI50 (K-562 leukemia) | TGI (K-562 leukemia)
1 | CC(=O)[CH-]C(=O)c1ccccc1.[C-]#[O+].[C-]#[O+].[Ir] | > 100 µM | > 100 µM | > 100 µM | > 100 µM | > 100 µM | > 100 µM | > 100 µM | > 100 µM | > 100 µM | > 100 µM | > 100 µM | > 100 µM | > 100 µM | > 100 µM |  |  |  |  |  | 
2 | Cc1cnc(C(=O)NNc2nc3sc4c(c3c(=O)[nH]2)C(C)CCC4)cn1 (stereo not drawn) | 0.524 µM | 11.1 µM |  |  | 1.5 µM | 18.5 µM |  |  | 1.63 µM | 20.8 µM | 1.04 µM | 3.36 µM | 2.61 µM | 11.3 µM | 0.727 µM | 9.52 µM | 1.78 µM | 10.4 µM | 2.66 µM | > 100 µM
3 | C=C(CN1CCc2[nH]c3ccc(F)cc3c2C1)c1ccc(C(=O)Nc2ccccc2N)cc1 | 2.92 µM | 11.8 µM |  |  | 1.93 µM | 5.91 µM |  |  | 1.38 µM | 3.82 µM | 0.502 µM | 1.83 µM | 0.6 µM | 2.71 µM | 0.78 µM | 4.75 µM | 0.621 µM | 11.3 µM | 1.06 µM | 14.6 µM
4 | CC(=O)Oc1ccc(C2=Cc3ccc(OC(C)=O)cc3OC2C)cc1 (stereo not drawn) | 6.56 µM | 67 µM |  |  | 2.31 µM | 5.73 µM |  |  | 11.1 µM | 72 µM | 7.24 µM | 29.9 µM | 15 µM | 64.1 µM | 4.11 µM | 38.1 µM | 3.57 µM | 73.1 µM | 3.05 µM | > 100 µM
5 | C(=Nc1nc(SCc2ccccc2)nc2[nH]ncc12)c1cccs1 | > 100 µM | > 100 µM |  |  | 29.8 µM | > 100 µM |  |  | 37.7 µM | > 100 µM | 2.77 µM | 19.8 µM | 53.7 µM | > 100 µM | 34.7 µM | > 100 µM | 49.6 µM | > 100 µM | 35 µM | > 100 µM
6 | C=CCN(CC=C)C(=O)c1cc(C)nc2c1c(=O)n(-c1ccccc1)c(=O)n2CCCN1CCN(c2ccccc2OC)CC1 | > 50 µM | > 50 µM |  |  | > 50 µM | > 50 µM |  |  | > 50 µM | > 50 µM | > 50 µM | > 50 µM | > 50 µM | > 50 µM | > 50 µM | > 50 µM | > 50 µM | > 50 µM | > 50 µM | > 50 µM
7 | CN1CCN(c2c(F)cc(NC3=C(Cl)C(=O)c4ncccc4C3=O)cc2F)CC1 | 25.2 µM | 72 µM |  |  | 1.45 µM | 2.77 µM |  |  | 11.5 µM | 26.1 µM | 15.2 µM | 28.8 µM | 1.68 µM | 3.39 µM | 4.34 µM | 15.3 µM | 17.9 µM | 49.3 µM | 0.494 µM | > 100 µM
8 | O=C(c1cccs1)c1c(C(F)(F)F)n([O-])c2cc(Cl)c(Cl)cc2[n+]1=O | 2.18 µM | 4.04 µM |  |  | 1.53 µM | 2.92 µM |  |  | 1.5 µM | 2.86 µM | 1.28 µM | 2.65 µM | 1.86 µM | 3.85 µM | 0.906 µM | 2.45 µM | 1.05 µM | 2.55 µM | 0.344 µM | 17.4 µM
9 | CSc1nc2nc(-c3ccccc3)c(C)c-2c2n1C(C)C(=O)N2 (stereo not drawn) | 8.43 µM | 59.1 µM |  |  | 53.6 µM | > 100 µM |  |  | 88.6 µM | > 100 µM | 16.9 µM | 35.5 µM | 51.3 µM | > 100 µM | 38.6 µM | > 100 µM | 38.8 µM | > 100 µM | 41.5 µM | > 100 µM
10 | COc1ccc2c(C(=O)O)cc3ccccc3c2c1OC |  | > 100 µM |  | 61 µM |  |  |  | > 100 µM |  | 46.8 µM |  |  |  | 35.9 µM |  | 30.7 µM |  |  |  | 80.6 µM
11 | CCCCCC(=O)O[C@]1(C(C)=O)CCC2C3CCC4=CC(=O)CC[C@]4(C)C3CC[C@@]21C (stereo partly drawn) | 3.25 µM | 13.3 µM |  |  | 1.75 µM | 8.22 µM |  |  | 2.55 µM | 7.56 µM | 1.43 µM | 2.77 µM | 3.15 µM | 12.6 µM | 2.55 µM | 6.85 µM | 2.11 µM | 8.42 µM | 3.19 µM | 21.9 µM
12 | CCO/C=C1\SC(=S)N(c2ccc(OCC)cc2)C1=O |  | > 100 µM |  |  |  | > 100 µM |  |  |  | > 100 µM |  | > 100 µM |  | > 100 µM |  | > 100 µM |  | > 100 µM |  | > 100 µM
13 | CCCCS(=O)c1sc2nc(-c3cccs3)cc(-c3ccccc3)c2c1N (stereo not drawn) | 27.8 µM | 97.3 µM |  |  | 10.3 µM | > 100 µM |  |  | 32 µM | > 100 µM | 13.3 µM | 28.3 µM | 25.1 µM | 90.5 µM | 17.9 µM | > 100 µM | 6.42 µM | > 100 µM | 5.96 µM | > 100 µM
14 | O=C(Nc1ccc(OC(F)(F)Cl)cc1)c1cnc(N2CC[C@@H](O)C2)c(-c2ccn[nH]2)c1 | 20.5 µM | 44.9 µM |  |  | 19.4 µM | 63 µM |  |  | 8.41 µM | 22.2 µM | 10.7 µM | 22.7 µM | 10.5 µM | 22.6 µM | 4.52 µM | 18.3 µM | 24.9 µM | 79.6 µM |  | 11 µM
15 | N#CC(C#N)=C/C=C(\Sc1ccc(Cl)cc1)c1ccc(F)cc1 | 13.5 µM | 40.7 µM |  |  | 0.465 µM | 2.77 µM |  |  | 2.87 µM | 6.17 µM | 1.76 µM | 6.33 µM | 6.88 µM | 14.7 µM | 0.729 µM | 2.61 µM | 0.948 µM | 4.94 µM | 0.0844 µM | > 100 µM
16 | COC(=O)C1=C(C(=O)OC)C2(c3ccccc3)OC1(c1ccccc1)c1cc3ccccc3cc12 |  | 24.4 µM |  | 4.22 µM |  | 2.83 µM |  | 3.46 µM |  | 3.7 µM |  | 3.69 µM |  |  |  | 3.33 µM |  |  |  | 6.06 µM
